The text below walks through data of patent US20200239420A1, “MODULATORS OF INDOLEAMINE 2,3-DIOXYGENASE” (GLAXOSMITHKLINE INTELLECTUAL PROPERTY DEVELOPMENT LIMITED, priority 2017, published 2020).

As a reminder, the AUC(0-inf) is the area under the concentration-time curve extrapolated to infinity. By AUC(0-t) is commonly meant the area under the concentration-time curve up to a stated or last time point. A higher AUC(0-t) goes with more exposure. In general, MRT inf refers to a mean duration of stay, worked out from the concentration-time curve. The clearance is the rate of elimination divided by the concentration. A low value points to inefficient removal. In general, half-life refers to how long it takes for the measured level to halve. Low readings indicate rapid decline, high ones slow decline. One may read the Cmax as the maximum level reached in the sampled fluid or tissue. Usually Tmax stands for the time from dosing to the highest level.

SMILES strings stand for the structures. Where only a bound is given, the exact number is not on record here.

Data set [1] addresses T1, indoleamine 2, 3-dioxygenase (IDO1) (Homo sapiens, UniProt P14902).
T1 construct: to induce the expression of indoleamine 2, 3-dioxygenase (IDO1); host or cells: human PBMC stimulated with IFN-gamma and LPS
As to the kind of experiment: IDO1 PBMC RapidFire MS assay (kynurenine detection). The class given is cell-based. Particulars: IFN-γ/LPS-stimulated human PBMC, 2 days, kynurenine by mass spectrometry; read-out: PBMC pIC50 (converted). On the procedure:
(§1) Compounds of the present invention were tested via high-throughput cellular assays utilizing detection of kynurenine via mass spectrometry and cytotoxicity as end-points. For the mass spectrometry and cytotoxicity assays, human peripheral blood mononuclear cells (PBMC) (PB003F; AllCells®, Alameda, Calif.) were stimulated with human interferon-γ (IFN-γ) (Sigma-Aldrich Corporation, St. Louis, Mo.) and lipopolysaccharide from Salmonella minnesota (LPS) (Invivogen, San Diego, Calif.) to induce the expression of indoleamine 2, 3-dioxygenase (IDO1). Compounds with IDO1 inhibitory properties decreased the amount of kynurenine produced by the cells via the tryptophan catabolic pathway. Cellular toxicity due to the effect of compound treatment was measured using CellTiter-Glo® reagent (CTG) (Promega Corporation, Madison, Wis.), which is based on luminescent detection of ATP, an indicator of metabolically active cells.
(§2) In preparation for the assays, test compounds were serially diluted 3-fold in DMSO from a typical top concentration of 1 mM or 5 mM and plated at 0.5 μL in 384-well, polystyrene, clear bottom, tissue culture treated plates with lids (Greiner Bio-One, Kremsmünster, Austria) to generate 11-point dose response curves. Low control wells (0% kynurenine or 100% cytotoxicity) contained either 0.5 μL of DMSO in the presence of unstimulated (−IFN-γ/−LPS) PBMCs for the mass spectrometry assay or 0.5 μL of DMSO in the absence of cells for the cytotoxicity assay, and high control wells (100% kynurenine or 0% cytotoxicity) contained 0.5 μL of DMSO in the presence of stimulated (+IFN-γ/+LPS) PBMCs for both the mass spectrometry and cytotoxicity assays.
(§3) Frozen stocks of PBMCs were washed and recovered in RPMI 1640 medium (Thermo Fisher Scientific, Inc., Waltham, Mass.) supplemented with 10% v/v heat-inactivated fetal bovine serum (FBS) (Thermo Fisher Scientific, Inc., Waltham, Mass.), and 1× penicillin-streptomyci antibiotic solution (Thermo Fisher Scientific, Inc., Waltham, Mass.). The cells were diluted to 1,000,000 cells/mL in the supplemented RPMI 1640 medium. 50 μL of either the cell suspension, for the mass spectrometry assay, or medium alone, for the cytotoxicity assay, were added to the low control wells, on the previously prepared 384-well compound plates, resulting in 50,000 cells/well or 0 cells/well respectively. IFN-γ and LPS were added to the remaining cell suspension at final concentrations of 100 ng/ml and 50 ng/ml respectively, and 50 μL of the stimulated cells were added to all remaining wells on the 384-well compound plates. The plates, with lids, were then placed in a 37 °C, 5% CO2 humidified incubator for 2 days.
(§4) Following incubation, the 384-well plates were removed from the incubator and allowed to equilibrate to room temperature for 30 minutes. For the cytotoxicity assay, CellTiter-Glo® was prepared according to the manufacturer's instructions, and 40 μL were added to each plate well. After a twenty-minute incubation at room temperature, luminescence was read on an EnVision® Multilabel Reader (PerkinElmer Inc., Waltham, Mass.). For the mass spectrometry assay, 10 μL of supernatant from each well of the compound-treated plates were added to 40 μL of acetonitrile, containing 10 μM of an internal standard for normalization, in 384-well, polypropylene, V-bottom plates (Greiner Bio-One, Kremsmünster, Austria) to extract the organic analytes. Following centrifugation at 2000 rpm for 10 minutes, 10 μL from each well of the acetonitrile extraction plates were added to 90 μL of sterile, distilled H2O in 384-well, polypropylene, V-bottom plates for analysis of kynurenine and the internal standard on the RapidFire 300 (Agilent Technologies, Santa Clara, Calif.) and 4000 QTRAP MS (SCIEX, Framingham, Mass.). MS data were integrated using Agilent Technologies' RapidFire Integrator software, and data were normalized for analysis as a ratio of kynurenine to the internal standard. […]

A short description of the next data set: Rat PK. The format is in vivo. The conditions noted are these: male Han Wistar rats, n = 3.
Data set [2] deals with human peripheral blood mononuclear cells (PBMC). As to the kind of experiment: PBMC cytotoxicity assay (CellTiter-Glo). The class given is cell-based. The conditions noted are these: 48 h; IFN-γ/LPS-stimulated human PBMC, 2 days, CellTiter-Glo cytotoxicity (pCC50); read-out: PBMC TOX pIC50 (converted). How it is done:
as §1, §2, §3, §4

T1 sequence (P14902 whole entry): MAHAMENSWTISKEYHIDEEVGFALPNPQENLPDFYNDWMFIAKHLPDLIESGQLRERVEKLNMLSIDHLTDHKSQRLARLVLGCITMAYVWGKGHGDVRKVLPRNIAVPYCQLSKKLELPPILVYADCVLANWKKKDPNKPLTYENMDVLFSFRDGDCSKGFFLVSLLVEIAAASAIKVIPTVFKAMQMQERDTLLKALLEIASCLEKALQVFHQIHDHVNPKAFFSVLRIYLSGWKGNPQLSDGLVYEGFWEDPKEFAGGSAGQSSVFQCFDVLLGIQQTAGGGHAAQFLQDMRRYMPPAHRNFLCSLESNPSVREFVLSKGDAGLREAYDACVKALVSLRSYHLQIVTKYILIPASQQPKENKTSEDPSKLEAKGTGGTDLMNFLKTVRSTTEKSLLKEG

On to `O=C(Nc1ccc(Cl)cc1)[C@@H]1C[C@]12CC[C@H](c1ccnc3ccccc31)CC2` (relative stereo) [Example 1, cis-N-(4-chlorophenyl)-6-(quinolin-4-yl)spiro[2.5]octane-1-carboxamide], for which the IC50 in data set [1] was 63.1 nM. This compound also gave a F in “Rat PK” (PO, 3 mg/kg) of 60.2%. Besides, in the data set “Rat PK” (rat, in vivo, IV, 1 mg/kg), the AUC(0-inf) was 4660 ng·h/mL, the exposure AUC(0-t) came out at 4450 ng·h/mL, the mean residence time (MRT inf) came to 7.35 h and the clearance is 3.58 mL/min/kg. Also, the half-life in “Rat PK” (rat, in vivo, IV, 1 mg/kg) was 322 min. Moreover, in the data set “Rat PK” (rat, in vivo, IV, 1 mg/kg, read-out: Vss), the Vd was found to be 1.58 L/kg. In addition, in the data set “Rat PK” (rat, in vivo, PO, 3 mg/kg), the AUC(0-inf) stood at 14000 ng·h/mL, the AUC(0-t) is 12300 ng·h/mL, the concentration peaked (Cmax) at 1000 ng/mL and the Tmax was 1 h. Also, the half-life in the data set “Rat PK” (rat, in vivo, PO, 3 mg/kg) was 430 min. In data set [2], the IC50 is > 10 µM.
As for `O=C(Nc1ccc(Cl)cc1)[C@@H]1C[C@]12CC[C@@H](c1ccnc3ccccc31)CC2` (relative stereo) [Example 2, trans-N-(4-chlorophenyl)-6-(quinolin-4-yl)spiro[2.5]octane-1-carboxamide], the IC50 in data set [1] is 126 nM; in data set [2], > 10 µM.
Taken in the same sequence, the figures for `O=C(NC1CC2(CCC(c3ccnc4ccccc34)CC2)C1)c1ccc(Cl)cc1` (centres unmarked) [Example 3, 4-chloro-N-(7-(quinolin-4-yl)spiro[3.5]nonan-2-yl)benzamide] were 79.4 nM and > 10 µM.
Turning to `O=C(NC1CC2(CCC(c3ccnc4ccccc34)CC2)C1)c1ccc(Cl)s1` (centres unmarked) [Example 4, 5-chloro-N-(7-(quinolin-4-yl)spiro[3.5]nonan-2-yl)thiophene-2-carboxamide], in data set [1], the IC50 was 20 nM. In the data set “Rat PK” (rat, in vivo, PO, 3 mg/kg), the AUC(0-inf) is 15500 ng·h/mL, the AUC(0-t) was 14400 ng·h/mL, the maximum concentration (Cmax) came out at 1140 ng/mL and the time to peak (Tmax) amounted to 3 h. In addition, in “Rat PK” (rat, in vivo, PO, 3 mg/kg), the half-life was 353 min. In data set [2], the IC50 was > 10 µM.
As to `O=C(CC1CC2(CCC(c3ccnc4ccccc34)CC2)C1)Nc1ccc(Cl)cc1` (centres unmarked) [Example 5, N-(4-chlorophenyl)-2-(7-(quinolin-4-yl)spiro[3.5]nonan-2-yl)acetamide], the IC50 in data set [1] is 63.1 nM; in data set [2], > 10 µM.
On the same counts, the results for `O=C(Nc1ccc(Cl)cc1)C1CC2(CCC(c3ccnc4ccc(F)cc34)CC2)C1` (centres unmarked) [Example 6, N-(4-chlorophenyl)-7-(6-fluoroquinolin-4-yl)spiro[3.5]nonane-2-carboxamide] are 15.8 nM and > 10 µM.
